In ChEMBL document CHEMBL1128113, “A novel series of arylpiperazines with high affinity and selectivity for the dopamine D3 receptor” (Bioorg Med Chem Lett, 1995):

Key:
[1] = test system: Rattus norvegicus; experiment: Selectivity for mesolimbic over nigrostriatal dopamine system in rat brain as ventral tegmental area infusion of muscimol induced locomotor activity (LMA) by sc dose; assay type: functional
[2] = molecular target: T1, 5-hydroxytryptamine receptor 1A (Rattus norvegicus, UniProt P19327); experiment: Binding affinity towards 5-hydroxytryptamine 1A receptor using [3H]8-OH-DPAT in rat hippocampus; assay type: tissue-based
T1 sequence (P19327 whole entry): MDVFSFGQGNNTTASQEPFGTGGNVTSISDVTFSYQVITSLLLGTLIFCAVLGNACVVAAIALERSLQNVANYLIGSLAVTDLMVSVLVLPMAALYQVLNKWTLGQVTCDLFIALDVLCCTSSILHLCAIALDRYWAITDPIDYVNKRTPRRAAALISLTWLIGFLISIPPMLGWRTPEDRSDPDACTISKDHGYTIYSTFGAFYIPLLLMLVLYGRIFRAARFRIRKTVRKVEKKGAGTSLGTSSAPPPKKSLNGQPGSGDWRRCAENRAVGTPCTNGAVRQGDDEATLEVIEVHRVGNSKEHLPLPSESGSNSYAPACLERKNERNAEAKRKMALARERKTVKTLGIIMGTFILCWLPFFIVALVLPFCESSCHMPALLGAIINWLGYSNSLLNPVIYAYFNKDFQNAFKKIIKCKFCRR

[3] = molecular target: T2, Adrenergic receptor alpha-1 (Rattus norvegicus, UniProt P15823+P23944+P43140); experiment: Compound was evaluated for binding affinity towards Alpha-1 adrenergic receptor using [3H]prazosin in rat heart
T2 sequence (P15823 whole entry): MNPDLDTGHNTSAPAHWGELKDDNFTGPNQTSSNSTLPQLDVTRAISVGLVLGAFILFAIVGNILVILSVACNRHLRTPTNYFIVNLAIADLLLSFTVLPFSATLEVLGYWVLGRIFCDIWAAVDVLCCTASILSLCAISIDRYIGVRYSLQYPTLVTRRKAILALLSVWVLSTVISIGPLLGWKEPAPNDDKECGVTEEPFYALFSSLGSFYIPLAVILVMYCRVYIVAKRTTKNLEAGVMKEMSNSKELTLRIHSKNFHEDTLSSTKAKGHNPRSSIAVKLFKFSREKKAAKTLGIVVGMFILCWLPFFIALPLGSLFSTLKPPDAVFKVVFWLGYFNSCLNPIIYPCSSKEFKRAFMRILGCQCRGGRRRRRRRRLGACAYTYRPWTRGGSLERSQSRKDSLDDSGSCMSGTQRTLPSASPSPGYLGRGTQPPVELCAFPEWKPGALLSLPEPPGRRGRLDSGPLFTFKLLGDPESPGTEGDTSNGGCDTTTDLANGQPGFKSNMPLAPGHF
T2 sequence (P23944 whole entry): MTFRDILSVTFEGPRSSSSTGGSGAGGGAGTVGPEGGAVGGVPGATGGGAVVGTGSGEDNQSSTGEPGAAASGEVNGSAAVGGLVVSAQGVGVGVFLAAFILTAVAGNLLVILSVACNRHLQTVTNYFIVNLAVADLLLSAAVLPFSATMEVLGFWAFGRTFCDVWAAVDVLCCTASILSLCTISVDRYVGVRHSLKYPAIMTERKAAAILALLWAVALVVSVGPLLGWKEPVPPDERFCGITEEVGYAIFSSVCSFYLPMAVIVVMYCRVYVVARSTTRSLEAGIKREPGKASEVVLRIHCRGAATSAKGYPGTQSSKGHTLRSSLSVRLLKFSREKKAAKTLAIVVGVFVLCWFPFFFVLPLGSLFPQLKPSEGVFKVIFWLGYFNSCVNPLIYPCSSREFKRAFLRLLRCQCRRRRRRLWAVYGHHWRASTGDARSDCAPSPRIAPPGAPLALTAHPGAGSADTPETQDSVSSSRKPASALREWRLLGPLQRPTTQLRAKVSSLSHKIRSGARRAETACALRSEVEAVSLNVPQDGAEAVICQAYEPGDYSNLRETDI
T2 sequence (P43140 whole entry): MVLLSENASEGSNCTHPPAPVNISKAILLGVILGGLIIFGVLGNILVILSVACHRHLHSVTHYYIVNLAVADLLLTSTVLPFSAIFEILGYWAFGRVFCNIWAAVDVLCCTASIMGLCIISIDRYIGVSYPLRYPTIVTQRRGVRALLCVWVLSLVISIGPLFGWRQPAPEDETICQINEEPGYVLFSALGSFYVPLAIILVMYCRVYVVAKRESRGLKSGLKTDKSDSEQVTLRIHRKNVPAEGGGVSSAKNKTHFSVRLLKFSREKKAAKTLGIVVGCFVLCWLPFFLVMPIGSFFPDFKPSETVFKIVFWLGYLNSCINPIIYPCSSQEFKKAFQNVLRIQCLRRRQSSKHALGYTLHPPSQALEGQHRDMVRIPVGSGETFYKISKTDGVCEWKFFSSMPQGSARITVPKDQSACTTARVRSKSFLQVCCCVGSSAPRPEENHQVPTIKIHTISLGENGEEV

[4] = molecular target: D(1A) dopamine receptor (Rattus norvegicus, UniProt P18901); experiment: Binding affinity towards D1 receptor using [3H]-SCH- 23390 in rat striatal tissue; assay type: tissue-based, Striatum
Sequence of D(1A) dopamine receptor (P18901 whole entry): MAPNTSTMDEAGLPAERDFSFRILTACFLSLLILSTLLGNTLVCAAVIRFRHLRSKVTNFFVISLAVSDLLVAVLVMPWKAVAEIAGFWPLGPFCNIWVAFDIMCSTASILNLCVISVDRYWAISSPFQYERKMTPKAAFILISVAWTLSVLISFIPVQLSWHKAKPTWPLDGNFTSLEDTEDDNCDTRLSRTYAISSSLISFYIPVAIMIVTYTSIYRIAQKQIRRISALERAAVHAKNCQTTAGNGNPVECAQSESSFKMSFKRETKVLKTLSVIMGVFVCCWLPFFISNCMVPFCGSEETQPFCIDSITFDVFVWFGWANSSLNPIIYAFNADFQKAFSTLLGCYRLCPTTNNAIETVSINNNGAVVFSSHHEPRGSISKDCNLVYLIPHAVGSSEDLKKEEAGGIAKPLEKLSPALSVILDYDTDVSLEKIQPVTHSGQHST

[5] = molecular target: D(2) dopamine receptor (Homo sapiens, UniProt P14416)
Sequence of D(2) dopamine receptor (P14416 whole entry): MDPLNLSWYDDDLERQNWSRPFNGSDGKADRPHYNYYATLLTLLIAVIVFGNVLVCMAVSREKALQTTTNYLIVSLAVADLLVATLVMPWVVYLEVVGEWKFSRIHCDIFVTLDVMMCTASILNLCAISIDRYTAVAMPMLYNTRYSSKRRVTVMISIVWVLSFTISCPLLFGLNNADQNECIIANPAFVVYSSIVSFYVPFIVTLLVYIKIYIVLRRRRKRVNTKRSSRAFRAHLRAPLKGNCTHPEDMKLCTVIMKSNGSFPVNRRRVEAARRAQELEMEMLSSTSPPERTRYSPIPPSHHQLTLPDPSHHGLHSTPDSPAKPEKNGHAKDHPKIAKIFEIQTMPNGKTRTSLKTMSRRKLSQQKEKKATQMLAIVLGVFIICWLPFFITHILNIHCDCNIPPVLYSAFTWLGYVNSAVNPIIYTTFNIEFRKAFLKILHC

[6] = molecular target: D(3) dopamine receptor (Homo sapiens, UniProt P35462); experiment: biochemical
Sequence of D(3) dopamine receptor (P35462 whole entry): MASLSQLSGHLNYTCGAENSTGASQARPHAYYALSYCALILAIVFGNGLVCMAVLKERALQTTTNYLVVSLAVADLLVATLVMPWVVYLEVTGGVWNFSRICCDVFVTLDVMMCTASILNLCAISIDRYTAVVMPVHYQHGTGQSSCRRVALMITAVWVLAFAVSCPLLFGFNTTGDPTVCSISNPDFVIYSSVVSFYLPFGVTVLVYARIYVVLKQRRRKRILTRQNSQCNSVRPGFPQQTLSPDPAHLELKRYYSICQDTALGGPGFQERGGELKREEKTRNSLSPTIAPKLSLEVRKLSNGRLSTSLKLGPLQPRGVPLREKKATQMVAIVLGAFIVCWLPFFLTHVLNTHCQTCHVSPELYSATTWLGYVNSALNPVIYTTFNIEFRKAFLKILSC

[7] = molecular target: T3, D(4) dopamine receptor (Homo sapiens, UniProt P21917); experiment: Binding affinity towards Chinese hamster ovary cells transfected with human D4 receptor using [3H]spiperone; assay type: cell-based
T3 sequence (P21917 whole entry): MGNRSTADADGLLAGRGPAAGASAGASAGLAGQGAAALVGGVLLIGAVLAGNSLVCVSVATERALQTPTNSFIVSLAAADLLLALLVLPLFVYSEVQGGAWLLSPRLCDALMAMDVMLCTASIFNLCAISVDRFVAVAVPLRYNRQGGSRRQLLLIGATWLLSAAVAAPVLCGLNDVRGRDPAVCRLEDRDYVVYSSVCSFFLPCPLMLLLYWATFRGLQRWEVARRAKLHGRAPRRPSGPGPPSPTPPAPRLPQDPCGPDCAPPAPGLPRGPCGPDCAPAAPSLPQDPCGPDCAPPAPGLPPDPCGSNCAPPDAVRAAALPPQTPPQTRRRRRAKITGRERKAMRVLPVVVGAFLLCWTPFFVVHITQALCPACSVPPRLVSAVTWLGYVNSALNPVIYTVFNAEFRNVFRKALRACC

[8] = test system: Rattus norvegicus; experiment: Selectivity for mesolimbic over nigrostriatal dopamine system in rat brain as substania nigra zona reticulata infusion of muscimol-induced locomotor activity (LMA) by sc dose; assay type: functional
[9] = molecular target: 5-hydroxytryptamine receptor 2A (Bos taurus) (UniProt Q75Z89); experiment: Binding affinity towards 5-hydroxytryptamine 2 receptor
Sequence of 5-hydroxytryptamine receptor 2A (Bos taurus) (Q75Z89 whole entry): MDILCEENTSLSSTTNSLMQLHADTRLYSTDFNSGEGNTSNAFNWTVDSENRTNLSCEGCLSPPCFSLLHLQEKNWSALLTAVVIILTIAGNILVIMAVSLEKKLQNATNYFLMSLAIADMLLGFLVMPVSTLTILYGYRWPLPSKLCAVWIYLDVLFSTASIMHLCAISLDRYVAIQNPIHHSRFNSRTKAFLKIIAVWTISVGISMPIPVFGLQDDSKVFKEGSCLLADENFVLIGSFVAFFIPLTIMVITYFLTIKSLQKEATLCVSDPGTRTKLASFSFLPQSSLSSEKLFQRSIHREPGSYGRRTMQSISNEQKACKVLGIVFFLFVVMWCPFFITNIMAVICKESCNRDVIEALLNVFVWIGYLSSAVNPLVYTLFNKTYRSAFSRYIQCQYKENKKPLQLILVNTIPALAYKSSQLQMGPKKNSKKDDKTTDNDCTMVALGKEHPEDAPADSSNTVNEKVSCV

[10] = molecular target: Serotonin 3 (5-HT3) receptor; experiment: Binding affinity towards 5-hydroxytryptamine 3 receptor; assay type: protein-complex assay
[11] = molecular target: T2, Adrenergic receptor alpha-1; experiment: Binding affinity towards Alpha-1 adrenergic receptor using [3H]prazosin in rat heart
[12] = molecular target: Adrenergic receptor alpha-1 (Homo sapiens) (UniProt P35348+P25100+P35368); experiment: Binding affinity towards Alpha-1 adrenergic receptor; assay type: protein assay
[13] = molecular target: T3, D(4) dopamine receptor; experiment: Binding affinity towards Dopamine D4 receptor

Row | SMILES | Ki [2] | Log Ki [3] | Ki [4] | Ki [5] | Ki [6] | also measured
1 | CN1CCN(C2=Nc3cc(Cl)ccc3Nc3ccccc32)CC1 [CLOZAPINE] | – | – | – | – | – | ED50 [1]: 0.002 mg/kg
2 | COc1ccccc1N1CCN(CCCCNC(=O)c2ccc(-c3ccc(S(C)(=O)=O)cc3)cc2)CC1 | 20 nM | -7.9 | 158 nM | 25.1 nM | 0.316 nM | –
3 | COc1ccc(OC)c(N2CCN(CCCCNC(=O)c3ccc(Br)cc3)CC2)c1 | 251 nM | -7.5 | – | 100 nM | 3.16 nM | –
4 | COc1ccccc1N1CCN(CCCCNC(=O)c2ccc(Br)cc2)CC1 | 12.6 nM | -7.9 | 501 nM | 39.8 nM | 0.501 nM | Ki [7]: 50.1 nM
5 | O=C(CCCN1CCC(O)(c2ccc(Cl)cc2)CC1)c1ccc(F)cc1 [HALOPERIDOL] | – | – | – | – | – | ED50 [8]: 0.05 mg/kg
6 | COc1ccccc1N1CCN(CCCCNC(=O)c2ccc(-c3ccc(N)cc3)cc2)CC1 | 12.6 nM | -8 | 100 nM | 20 nM | 0.2 nM | –
7 | COc1ccccc1N1CCN(CCCCNC(=O)c2ccc(-c3ccc(C(C)=O)cc3)cc2)CC1 | 3.16 nM | – | 398 nM | 39.8 nM | 0.316 nM | pKB [9]: < 5; Log Ki [10]: > -5; Log Ki [11]: -7.9; pKB [12]: 7.8; Ki [13]: 63.1 nM; ED50 [8]: > 10 mg/kg; ED50 [1]: 0.3 mg/kg
8 | O=C(NCCCCN1CCN(c2ccccc2)CC1)c1ccc(Br)cc1 | 126 nM | – | – | 398 nM | 6.31 nM | –
